Measured values from patent publication US11553718B2, “Mic reduction with lithium ions” (priority 2014, dated 2023).
Where “and” joins values, the source holds several entries; their conditions need not be identical. Equal values may be shown once. Read-outs that look alike come from different tables or passages of the source.

Columns and labels:
[1] = test system: S. aureus strain DSMZ 346; assay: MIC determination / bacterial count in CaCO3 slurry with or without lithium ions; format: cell-based; conditions: for MIC: Staphylococcus aureus, DSMZ346, S. aureus, read-out: MIC active/aequeous; for bacterial count: S. aureus DSMZ 346; for antimicrobial effect of lithium ions provided alone: S. aureus strain
Protocol: (§1) When not otherwise indicated, the quoted bacterial counts (values are in cfu/plate) in the Tables here below are determined after 2 days following plate-out and incubation at 30° C. The counting method was as follows. The aqueous preparations were stirred well with a cotton swap (e.g. Applimed SA, No. 1102245); the excess aqueous preparation was removed by dipping it gently to the side of the aqueous preparation container, leaving approximately 200 mg of aqueous preparation on the swap. […] TSA plates were then incubated for 48 h at 30° C. Colony forming units (cfu) were then counted and reported as cfu/plate. Counts from 100 to 999 cfu per plate are reported as ≥100 cfu/plate. Counts of 1000 cfu and above per plate are reported as ≥1000 cfu/plate. Yeast and moulds were counted as described for bacteria with the following exceptions, a) Sabouraud Dextrose Agar (SDA) containing Chloramphenicol (e.g. heipha Dr. Miller GmbH, No. 1460030020) were used instead of TSA, b) SDA plates were incubated at 25° for 5 days and c) cfu were counted and reported after 48 h and 5 days of incubation. Yeast and moulds counts from 20 to 99 cfu per plate are reported as […]. Yeast and moulds counts of 100 cfu and above per plate are reported as >100 cfu/plate.
(§2) For determining the MIC, the tested microorganism, i.e. the strain of bacteria and/or strain of yeast and/or strain of mould, were freshly grown until the end of the logarithmic growth phase according to the requirements of the individual species to a density of approximately 10^7-10^9 cells/ml.
(§3) For example, fresh bacteria cultures of the bacteria E. coli, e.g. E. coli ATCC 11229, and S. aureus, e.g. S. aureus strains DSMZ 346, were prepared by inoculation of 3 ml liquid growth media (tryptic soy broth, e.g. Fluka Cat. No. 22092) from a stock culture and incubation for 16 to 20 h at 30° C. with agitation at 150 rotations per minutes (rpm) leading to a cell density of approximately 2×10^8 cells/ml. Fresh cultures of resistant bacteria, adapted to the conditions in biocide containing CaCO3 slurries, were prepared by inoculation of 50 g 75 wt.-% solid content CaCO3 slurry from a stock culture and incubated for 14 to 28 days at 30° C. without agitation.
(§4) Lithium ions were added to the aqueous preparation (e.g. CaCO3 slurry) by the addition of a water soluble lithium salt. For example to 50 g CaCO3 slurry with a solid content of 75% (w/w) 1.177 ml of a 74 g/Li2CO3 suspension was added and mixed well leading to a lithium ion concentration of 172 mM or 1205 ppm in the water phase. As another example to 50 g CaCO3 slurry with a solid content of 75 wt.-% (w/w) 0.04 ml of a 292 g/L Li3Citrate (2M) solution was added and mixed well leading to a lithium ion concentration of 19 mM or 135 ppm in the water phase.
(§5) The biocide to be tested was added to the aqueous preparation (e.g. CaCO3 slurry with or without lithium ions) in increasing concentrations starting from 0 ppm (without biocide). The concentrations ranged from concentrations higher than recommended by the supplier, to very low amounts (as low as 1 ppm or lower). Of each biocide concentration a 3 ml sample of aqueous preparation was combined with 20 μl fresh bacterial culture.
(§6) All samples were incubated at 30° C. for 24 h. After incubation colony forming units (cfu) per plate (cfu/plate) were determined as described above under bacterial count.
(§7) The MIC for bacteria is defined as the lowest concentration of biocide in the presence or absence of lithium ion amongst all samples tested, where the bacterial concentration dropped below 100 cfu/plate. The MIC for yeast and mould is defined as the lowest concentration of biocide in the presence or absence of lithium ion amongst all samples tested, where the microbial concentration dropped below 20 cfu/plate.

[2] = test system: E. coli strain ATCC11229; assay: as above; format: cell-based; conditions: for MIC ratio (MICwithout Li/MICLi): E. coli; for MIC: Escherichia coli; for bacterial count: E. coli ATCC11229
Protocol: as §1, §2, §3, §4, §5, §6, §7

[3] = test system: bacterial strain rOmyAK; assay: microbe, parasite or virus in culture; format: cell-based, Pseudomonas mendocina; conditions: for MIC: Thioalkalivibrio paradoxus, read-out: MIC active/aequeous, rOmyAK; for MIC ratio (MICwithout Li/MICLi): rOmyAK
Protocol: as §1, §2, §3, §4, §5, §6, §7

[4] = test system: rOPP strain; assay: MIC determination in CaCO3 slurry with or without lithium ions; format: cell-based, Pseudomonas mendocina; conditions: Li2CO3; for MIC: Ectopseudomonas mendocina, read-out: MIC active/aequeous, rOPP; for MIC ratio (MICwithout Li/MICLi): rOPP
Protocol: as §1, §2, §3, §4, §5, §6, §7

[5] = test system: S. aureus; assay: Curative MIC (bacteria added before biocide and lithium); format: cell-based; conditions: Curative treatment, Li^+ 329 mM (2305 ppm), Li2CO3
[6] = ATCC11229, read-out: MIC active/aequeous, E. coli, Li^+ 197 mM (1380 ppm), Li2CO3
[7] = ATCC11229, read-out: MIC active/aequeous, E. coli, no Li^+
[8] = S. aureus, Li^+ 423 mM (2964 ppm), Li2CO3
[9] = ATCC11229, read-out: MIC active/aequeous, E. coli, Li^+ 329 mM (2305 ppm), Li2CO3
[10] = S. aureus, Li^+ 329 mM (2305 ppm), Li2CO3
[11] = S. aureus, Li^+ 197 mM (1380 ppm), Li2CO3

## C=O [Formaldehyde]
[1]
  MIC ratio (MICwithout Li/MICLi): >10
[2]; Li^+ 197 mM (1380 ppm), Li2CO3
  MIC ratio (MICwithout Li/MICLi): >2
[2]; [6]
  MIC: 590 µM and 17.7 µg/mL
[2]; [7]
  MIC: > 1180 µM and > 35.4 µg/mL
[3]; Li^+ 197 mM (1380 ppm), Li2CO3
  MIC: 11800 µM and 354 µg/mL
  MIC ratio (MICwithout Li/MICLi): >3
[3]; no Li^+
  MIC: > 35400 µM and > 1060 µg/mL

## Oc1ccccc1-c1ccccc1 [2-Phenylphenol (OPP), 2-Phenylphenol]
[1]; S. aureus, Li^+ 53 mM (370 ppm), Li2CO3
  MIC ratio (MICwithout Li/MICLi): 2
[1]; S. aureus, Li^+ 67 mM (470 ppm), LiOH
  MIC ratio (MICwithout Li/MICLi): 10
[1]; Li^+ 53 mM (370 ppm), Li2CO3
  MIC: 880 µM and 150 µg/mL
[1]; Li^+ 67 mM (470 ppm), LiOH
  MIC: 180 µM and 30 µg/mL
[1]; no Li^+
  MIC: 1760 µM and 300 µg/mL
[2]; Li^+ 197 mM (1380 ppm), Li2CO3
  MIC ratio (MICwithout Li/MICLi): 1.5
[2]; [6]
  MIC: 2080 µM and 354 µg/mL
[2]; [7]
  MIC: 3120 µM and 531 µg/mL
[4]; Li^+ 172 mM (1205 ppm)
  MIC: 260 µM and 45 µg/mL
  MIC ratio (MICwithout Li/MICLi): 2
[4]; Li^+ 197 mM (1380 ppm)
  MIC: 2080 µM and 354 µg/mL
  MIC ratio (MICwithout Li/MICLi): >4.5
[4]; Li^+ 329 mM (2305 ppm)
  MIC: 1040 µM and 177 µg/mL
  MIC ratio (MICwithout Li/MICLi): >9

## Cc1cc(O)ccc1Cl [4-Chloro-3-methylphenol]
[1]; [8]
  MIC ratio (MICwithout Li/MICLi): 1.5
[1]; Li^+ 423 mM (2964 ppm), Li2CO3
  MIC: 2480 µM and 354 µg/mL
[1]; no Li^+
  MIC: 3720 µM and 531 µg/mL
[2]; 88.5 ppm 4-chloro-3-methylphenol, 197 mM Li^+
  bacterial count: ≥100 cfu/plate
[2]; 88.5 ppm 4-chloro-3-methylphenol, no Li^+
  bacterial count: ≥1000 cfu/plate
[2]; Li^+ 197 mM (1380 ppm), Li2CO3
  MIC ratio (MICwithout Li/MICLi): 2
[2]; Li^+ 329 mM (2305 ppm), Li2CO3
  MIC ratio (MICwithout Li/MICLi): 4
[2]; [6]
  MIC: 177 µg/mL and 1240 µM
[2]; [9]
  MIC: 620 µM and 88.5 µg/mL
[2]; [7]
  MIC: 354 µg/mL and 2480 µM

## [Na+].[O-][n+]1ccccc1[S-] [Sodium pyrithione]
[2]; Li^+ 197 mM (1380 ppm), Li2CO3
  MIC ratio (MICwithout Li/MICLi): 3

## CN1CSC(=S)N(C)C1 [3.5-Dimethyltetrahydro-1,3,5-thiadiazine-2-]
[1]; [8]
  MIC ratio (MICwithout Li/MICLi): >2.5
[1]; Li^+ 423 mM (2964 ppm), Li2CO3
  MIC: 440 µM and 70.8 µg/mL
[1]; no Li^+
  MIC: > 1090 µM and > 177 µg/mL
[2]; Li^+ 329 mM (2305 ppm), Li2CO3
  MIC ratio (MICwithout Li/MICLi): 1.25
[2]; [9]
  MIC: 870 µM and 142 µg/mL
[2]; [7]
  MIC: 1090 µM and 177 µg/mL

## [Li+] [Li^+]
[1]; no CMIT/MIT, 197 mM Li^+ (Li2CO3) alone
  bacterial count: ≥1000 cfu/plate
[1]; no Sodium pyrithione, 96 mM Li^+ (lithium citrate) alone
  bacterial count: ≥1000 cfu/plate
[1]; lithium ions via Li2CO3, no biocide
  antimicrobial effect of lithium ions provided alone: no antimicrobial effect
[1]; lithium ions via lithium citrate, no biocide
  antimicrobial effect of lithium ions provided alone: no antimicrobial effect
[2]; no 4-chloro-3-methylphenol, 197 mM Li^+ (Li2CO3) alone
  bacterial count: ≥100 cfu/plate
[2]; E. coli strain, lithium ions via Li2CO3, no biocide
  antimicrobial effect of lithium ions provided alone: no antimicrobial effect
[3]; rOmy AK strain, lithium ions via Li2CO3, no biocide
  antimicrobial effect of lithium ions provided alone: no antimicrobial effect
[3]; rOmy AK, no MIT, 329 mM Li^+ (Li2CO3) alone
  bacterial count: ≥1000 cfu/plate

## O=S(=O)(C(Cl)(Cl)Cl)C(Cl)(Cl)Cl [Hexachlorodimethyl sulfone]
[1]; [10]
  MIC ratio (MICwithout Li/MICLi): 1.33
[2]; Li^+ 197 mM (1380 ppm), Li2CO3
  MIC ratio (MICwithout Li/MICLi): 1.67

## N#CSCSC#N [Methylene bis(thiocyanate)]
[1]; [10]
  MIC ratio (MICwithout Li/MICLi): 4.04

## O=c1[nH]sc2ccccc12 [Benzisothiazolinone (BIT), Benzisothiazolinone]
[1]; [8]
  MIC ratio (MICwithout Li/MICLi): >2
[5]
  MIC ratio (MICwithout Li/MICLi): 2

## OC1OCCOC1O (stereo not shown) [1,6-Dihydroxy-2,5-dioxane]
[3]; Li^+ 197 mM (1380 ppm), Li2CO3
  MIC: 8700 µM and 1060 µg/mL
  MIC ratio (MICwithout Li/MICLi): >1.5
[3]; Li^+ 423 mM (2964 ppm), Li2CO3
  MIC: 5800 µM and 708 µg/mL
  MIC ratio (MICwithout Li/MICLi): >2.25
[3]; no Li^+
  MIC: 3100 µM and > 1590 µg/mL

## Polyethoxyethoxyethylguanidinium hexachloride
[2]; Li^+ 197 mM (1380 ppm), Li2CO3
  MIC ratio (MICwithout Li/MICLi): >1.33
[2]; Li^+ 423 mM (2964 ppm), Li2CO3
  MIC ratio (MICwithout Li/MICLi): >8

## O=[N+]([O-])C(Br)(CO)CO [Bronopol]
[1]; S. aureus, Li^+ 172 mM (1205 ppm), Li2CO3
  MIC ratio (MICwithout Li/MICLi): 6
[1]; [11]
  MIC ratio (MICwithout Li/MICLi): 2
[1]; [10]
  MIC ratio (MICwithout Li/MICLi): 6
[1]; [8]
  MIC ratio (MICwithout Li/MICLi): 20
[1]; Li^+ 172 mM (1205 ppm), Li2CO3
  MIC: 150 µM and 30 µg/mL
[1]; Li^+ 197 mM (1380 ppm), Li2CO3
  MIC: 450 µM and 90 µg/mL
[1]; Li^+ 329 mM (2305 ppm), Li2CO3
  MIC: 150 µM and 30 µg/mL
[1]; Li^+ 423 mM (2964 ppm), Li2CO3
  MIC: 50 µM and 9 µg/mL
[1]; no Li^+
  MIC: 900 µM and 180 µg/mL
[2]; Li^+ 172 mM (1205 ppm), Li2CO3
  MIC ratio (MICwithout Li/MICLi): >3.75
[2]; Li^+ 197 mM (1380 ppm), Li2CO3
  MIC ratio (MICwithout Li/MICLi): 3
[2]; ATCC11229, E. coli, Li^+ 172 mM (1205 ppm), Li2CO3, read-out: MIC active/aequeous
  MIC: 120 µM and 24 µg/mL
[2]; ATCC11229, E. coli, Li^+ 197 mM (1380 ppm), Li2CO3, read-out: MIC active/aequeous
  MIC: 180 µM and 35.4 µg/mL
[2]; ATCC11229, E. coli, no Li^+, read-out: MIC active/aequeous
  MIC: 530 µM and 106 µg/mL

## CCCCCCCCCCCCN=C(N)N.Cl [Guanidinedodecyl monochloride]
[2]; Li^+ 197 mM (1380 ppm), Li2CO3
  MIC ratio (MICwithout Li/MICLi): >2.4

## O=CCCCC=O [Glutaraldehyde]
[1]; [11]
  MIC ratio (MICwithout Li/MICLi): >10
[1]; Li^+ 197 mM (1380 ppm), Li2CO3
  MIC: 40 µM and 3.54 µg/mL
[1]; no Li^+
  MIC: > 350 µM and > 35.4 µg/mL
